Data on 22 molecules can be found in article PMC7155171, “Probing the Open Global Health Chemical Diversity Library for Multistage-Active Starting Points for Next-Generation Antimalarials” (ACS Infectious Diseases, 2020).

This assay relates to P. falciparum Dd2 (PfLuc) line expressing firefly luciferase, asexual blood stage. The assay is described as follows: microbe, parasite or virus in culture. It counts as cell-based, Plasmodium falciparum. Particulars: Plasmodium falciparum.
The mark [1] stands for this setting: DD2, 8-pt dose response, 96hr, read-out: P. falciparum Luciferase ABS 8-pt Reconfirmation Dose Response (96hr): IC50.
Where [2] appears, read: DD2, 8-pt dose response, 96hr, read-out: P. falciparum Luciferase ABS 8-pt Reconfirmation Dose Response (96hr): Maximum inhibition (%).
Where [3] appears, read: DD2, read-out: P. falciparum Luciferase ABS 11-pt Reconfirmation Dose Response (48hr): IC50, 11-pt dose response, 48hr.
The mark [4] stands for this setting: DD2, 11-pt dose response, 48hr, read-out: P. falciparum Luciferase ABS 11-pt Reconfirmation Dose Response (48hr): Maximum inhibition (%).
Setting [5] is: DD2, 11-pt dose response, 96hr, read-out: P. falciparum Luciferase ABS 11-pt Reconfirmation Dose Response (96hr): IC50.
The mark [6] stands for this setting: DD2, 11-pt dose response, 96hr, read-out: P. falciparum Luciferase ABS 11-pt Reconfirmation Dose Response (96hr): Maximum inhibition (%).

Where two headings read alike, the source gives them in different places. Some results are limits rather than exact numbers.

For `O=S(=O)(NC[C@H]1C[C@@H]2CCN1C[C@@H]2CN1CCCC1)c1ccc(Cl)cc1` [DDD01024774], the IC50 under setting [1] was found to be 1.46 µM. In addition, the Emax under setting [2] came out at 91%.

As for `CN(C[C@H]1CN2CC[C@H]1C[C@@H]2CNC(=O)c1ccco1)c1ccccc1` [DDD01024849], under setting [1], the 50% inhibitory concentration (IC50) is 1.76 µM. Moreover, the Emax under setting [2] was determined as 83.2%.

In the case of `O=C([C@@H]1Cc2[nH]cnc2CN1Cc1cc2ccccc2o1)N1CCCC1` [DDD01024952], the IC50 under setting [1] turned out to be 1.42 µM. Moreover, the Emax under setting [2] stood at 91%.

`CCC1CN(CC(=O)NCCN2CCCCCC2)c2ccccc2S1` (stereo not shown) [DDD01025851]: under setting [1], the IC50 is 1.73 µM. The Emax under setting [2] is 82.5%.

Regarding `CN1CC[C@H](N(Cc2ccccc2)CC2CC2)C[C@H](O)C1` [DDD01026225], the IC50 under setting [1] stood at 1.29 µM. The Emax under setting [2] amounted to 82%.

Consider `CC(C)n1ncc2c1NC(=O)CC21C(=O)Nc2c(Cl)ccc(Cl)c21` (stereo not shown) [DDD01027128], for which, under setting [1], the IC50 turned out to be 1.59 µM. For the same molecule, the Emax under setting [2] is 94.1%.

Regarding `CN1CCn2c(-c3cccc(F)c3)cnc2C12CCN(CC1CC1)CC2` [DDD01030549], under setting [1], the IC50 was 1.2 µM. Further, the Emax under setting [2] came out at 84.4%.

Regarding `c1cncc(-c2ccc3c(c2)CCC32CCNCC2)c1` [DDD01031368], the IC50 under setting [1] worked out at 1.35 µM. Moreover, under setting [2], the Emax came out at 95.6%.

Regarding `Cc1ccc(CN2CCCC3(CCN(Cc4ccoc4)CC3)C2)cc1` [DDD01031609], the IC50 runs as follows: under setting [3], 3.17 µM; under setting [1], 1.16 µM; under setting [5], 0.742 µM. Further, the Emax runs as follows: under setting [2], 88.7%; under setting [4], 88.7%; under setting [6], 98.3%.

Turning to `c1ccc(NC[C@@H]2CCC[C@@H]3CN(Cc4cccnc4)C[C@@H]32)nc1` [DDD01032334], under setting [1], the IC50 came to 1.72 µM. Moreover, the Emax under setting [2] amounted to 81.5%.

As to `COc1cccc(-n2ccc3nc(N4CCCC4)ncc3c2=O)c1` [DDD01034957], the IC50 by setting is: under setting [3], > 4.16 µM; under setting [1], 1.6 µM; under setting [5], 0.531 µM. In addition, the Emax runs as follows: under setting [2], 95.4%; under setting [4], 13.2%; under setting [6], 98.6%.

For the molecule `Fc1ccc(Sc2ccccc2CNC2=NCCN2)cc1` [DDD01035542], the IC50 under setting [1] was found to be 1.81 µM. The Emax under setting [2] is 81.8%.

For the molecule `Fc1ccccc1Sc1ccccc1CNC1=NCCN1` [DDD01035543], under setting [1], the IC50 is 1.57 µM. Moreover, the Emax under setting [2] was determined as 83.6%.

`O=C(Cn1ccc2ccc(Br)cc21)NC[C@@H]1CCCN2CCCC[C@H]12` [DDD01035644]: the IC50 under setting [1] was 2.57 µM. For the same molecule, the Emax under setting [2] is 81.8%.

With `c1cnc(N2CCC3(CC2)CN(CC2CC2)c2ccccc23)nc1` [DDD01036239], the IC50 under setting [1] came to 1.74 µM. In addition, under setting [2], the Emax is 90.6%.

With `COc1ccc(CN2CC[C@@H](O)[C@@H]2Cc2ccccc2)cc1` [DDD01037044], under setting [1], the 50% inhibitory concentration (IC50) amounted to 1.83 µM. The Emax under setting [2] is 77.4%.

`CCc1ccc(-c2cc(C(F)(F)F)nc(N3CCC(N)CC3)n2)cc1` [DDD01037626]: the IC50 worked out at 1.86 µM under setting [3], 1.72 µM under setting [1] and 0.828 µM under setting [5]. The Emax under setting [2] came to 93.8%, the Emax under setting [4] was found to be 98.9% and the Emax under setting [6] is 100%.

Turning to `Cc1cc(C)n(CCCn2cncc2-c2ccc3c(c2)CC(C)N3C)n1` (stereo not shown) [DDD01056528], the IC50 under setting [1] was 1.7 µM. In addition, under setting [2], the Emax worked out at 94.8%.

For `Cc1nn(C)c(C)c1CCn1cncc1-c1ccc2c(c1)CC(C)N2C` (stereo not shown) [DDD01056530], under setting [1], the IC50 was found to be 1.85 µM. For the same molecule, the Emax under setting [2] came to 94.7%.

As for `CN(C)CCn1nc(C2CCN(Cc3ccccc3)C2)c2cccnc21` (stereo not shown) [DDD01056665], the concentration for half-maximal inhibition (IC50) under setting [1] is 1.99 µM. The Emax under setting [2] is 70.9%.

With `Cc1cc(Cc2cccc(C(F)(F)F)c2)cc(C2CCCNC2)n1` (stereo not shown) [DDD01057885], the IC50 under setting [3] was determined as 4.53 µM, the IC50 under setting [1] amounted to 1.24 µM and the IC50 under setting [5] worked out at 0.958 µM. Besides, the Emax is, setting by setting: under setting [2], 92%; under setting [6], 100%.

Regarding `COc1cccc(OC)c1CNC(Cc1ccsc1)c1ccc(C)cn1` (stereo not shown) [DDD01058770], under setting [1], the concentration for half-maximal inhibition (IC50) is 1.56 µM.
